Data as given in paper PMC6882489, “Design and synthesis of tricyclic terpenoid derivatives as novel PTP1B inhibitors with improved pharmacological property and in vivo antihyperglycaemic efficacy” (Journal of Enzyme Inhibition and Medicinal Chemistry, 2019).

Experiments:
[1] = target: T1, human PTP1B (Homo sapiens, UniProt P18031); experiment: PTP1B inhibition assay (pNPP substrate, UV absorption); format: biochemical; settings: for inhibition at 10 µM: PTP1B inhibition at 10 μM, performed in triplicate
T1 construct: purchased Sigma
T1 sequence (P18031 1-435): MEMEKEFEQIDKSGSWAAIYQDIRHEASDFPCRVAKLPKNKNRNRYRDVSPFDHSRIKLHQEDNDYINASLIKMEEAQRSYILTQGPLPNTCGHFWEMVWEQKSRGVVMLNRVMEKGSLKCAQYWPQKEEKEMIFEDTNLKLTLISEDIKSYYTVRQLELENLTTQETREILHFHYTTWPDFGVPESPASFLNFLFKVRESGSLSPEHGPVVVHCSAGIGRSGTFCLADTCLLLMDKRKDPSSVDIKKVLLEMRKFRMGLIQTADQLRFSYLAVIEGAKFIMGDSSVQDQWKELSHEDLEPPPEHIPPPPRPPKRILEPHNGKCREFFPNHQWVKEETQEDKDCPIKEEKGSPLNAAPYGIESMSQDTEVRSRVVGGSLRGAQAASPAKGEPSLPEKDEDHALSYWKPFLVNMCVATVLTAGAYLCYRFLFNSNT
Method: The inhibitory assay was performed using human PTP1B (purchased from Sigma) and p-nitrophenylphosphate (pNPP) as substrate by UV absorption. 400 nmol pNPP were dissolved in H2O and 48 μL of the solution was added to a 100 μL reaction. The indicated amount of synthetic compounds was diluted in DMSO at a concentration of 5 mM. The PTP1B was diluted in pH 7.2 buffer contained 50 mM HEPES, 3 mM dithiothreitol, 2 mM EDTA and 100 mM NaCl. About 50 μL PTP1B dilution was added, and the mixture incubated at 37 °C for 30 min. 1N NaOH was added to terminate the reaction. UV–Vis absorption was detected at 410 nm using a Tecan Infinite M1000 plate reader.

[2] = test system: PTP1B; design: method as in PMID 20964318; settings: cited from earlier work
[3] = test system: NIDDM mice; format: in vivo; settings: for Antihyperglycaemic effect (plasma glucose): male Kunming mice, 100 mg/kg intraperitoneally, glucose at 0-4 h, n = 8
Method: The antihyperglycaemic effect of the compounds 15, 25 and C10a were evaluated on non-insulin dependent diabetes mellitus (NIDDM) mice. Nicotinamide and streptozotocin were administrated intraperitoneally to induce hyperglycaemia and the plasma glucose of mice raised over 4.5 mmol/L[45].
Figure 5. The antihyperglycaemic effect in NIDDM mice (n = 8). […] M group: NIDDM mice were treated with saline alone. Y group: NIDDM mice were treated with rosiglitazone.
During the experiment, the male Kunming mice with 25–30 g body weight were fasted but received water prior to induction of diabetes. 110 mg/kg of nicotinamide and 65 mg/kg of streptozotocin (Macklin in Biochemical Technology Co., Ltd., Shanghai, China) were dissolved in pH 4.5 citrate buffer and intraperitoneally administrated to induce NIDDM mice model. The mice were intraperitoneally administered with a compound or rosiglitazone (100 mg/kg) dissolved in saline containing 1% DMSO and 10% Tween 80. Hyperglycaemia was confirmed by a plasma glucose increase of more than 4.5 mmol/L measured by a blood glucose metre (Sinocare GA-3, Changsha, China). Glucose concentrations from the tail of the mice were measured at 0, 0.5, 1, 2, 3 and 4 h by the blood glucose metre. Calculate the percentage of blood glucose by using the following formula: variation of glycaemia% = (AX − A0)/A0 × 100% (AX: blood glucose at selected time; A0: initial blood glucose).

[4] = test system: HepG2 cells; experiment: Cell viability in the MTT assay; format: cell-based, human; settings: 40 μM compound, 24 h
Method: Cell viability in the MTT assay
The toxicities of the compounds were evaluated by (3-(4, 5-dimethylthiazolyl-2)-2, 5-diphenyltetrazolium bromide) test. HepG2 cells were routinely grown in Dulbecco's Modified Eagle Medium (DMEM) supplemented with 10% (v/v) fetal bovine serum, streptomycin ([…]), and penicillin (100U/mL), in a humidified atmosphere of 95% air, 5% CO2 at 37°C. HepG2 cells were planked in a 96 well plate with a concentration of 1×10^4 cells/well and cultured in 37°C and 5%CO2 for 24 h. Then HepG2 cells were treated with 40 μM of the synthetic compound. HepG2 cells untreated were used as control. HepG2 cells were cultured in 37℃ and 5%CO2 for 24 h, the old medium was carefully removed and were cultured for another 4 h in MTT (0.5%) containing DMEM, then the medium was carefully removed. 150 µL/well dimethyl sulfoxide was added and oscillated gently to make crystal dissolved. The absorbance at 560 nm was measured using a microplate reader. The cell […]
Fig. S1. Cell viability in the MTT assay.
(1 picture or pasted object on this page, not shown here)

[5] = test system: insulin-resistant HepG2 cells; experiment: Glucose uptake / glucose consumption in insulin-resistant HepG2 cells; format: cell-based, human; settings: HepG2 induced with 1.5 × 10^−5 mmol insulin for 36 h; compound 40 μM or rosiglitazone 10 μM for 24 h; glucose oxidase method
Method: To assess the insulin sensitisation, the cellular effect of these compounds on insulin-resistant human hepatoma HepG2 cells was performed. The concentration of insulin and induction time were screened to induce insulin resistance in HepG2 cells according to the reported method[41]^,[42] with some modification. As shown in Figure 4(A), treatment with above 1 × 10^−5 mmol of insulin reduced glucose uptake, whereas treatment with 6 × 10^−6 mmol of insulin enhanced glucose uptake. […] As shown in Figure 4(B), insulin resistance was induced in HepG2 cells at 36 h, and rosiglitazone can decrease the insulin resistance. […]
Figure 4. […] After incubation, glucose content in the culture medium was measured by glucose oxidase method. […]
HepG2 cells were grown in DMEM with 10% foetal bovine serum, […] of streptomycin, and 100 U/mL of penicillin, in a humidified atmosphere of 5% CO2 at 37 °C. […] After cultivation, the glucose content was determined by the glucose oxidase method (the glucose analysis kit was purchased from Rongsheng Biopharmaceutical Co., Ltd., Shanghai, China). […] The absorbance was measured at 506 nm using a microplate reader (SpectraMax i3x, Molecular Devices). The residual glucose concentration is expressed as AX/A0 × 5.55 mmol/L (AX: OD value of sample; A0: OD value of glucose standard solution).

SMILES | inhibition at 10 µM [1] | melting point | other results
CC(C)C1=CC2=CC[C@@H]3[C@](C)(CCC[C@@]3(C)C(=O)O)[C@H]2CC1 [Compound 1, abietic acid] | 35% |  | 
CC(C)(O)c1ccc2c(c1)CC[C@H]1[C@](C)(C(=O)O)CCC[C@]21C [Compound 3, 15-Hydroxydehydroabieta-18-oic acid] | 19% | 92 to 93 °C | 
CCOC(=O)[C@]1(C)CCC[C@]2(C)c3ccc(C(C)(C)O)cc3CCC12 (stereo partly drawn) [Compound 4a, Ethyl 15-hydroxydehydroabietate] | 4% | 51 to 52 °C | 
CC(C)(O)c1ccc2c(c1)CCC1[C@](C)(CO)CCC[C@]21C (stereo partly drawn) [Compound 5, 1-Hydroxylmethyl-15-hydroxydehydroabietate] | 0% |  | 
C[C@@]1(C(=O)O)CCC[C@]2(C)c3ccc(O)cc3CCC12 (stereo partly drawn) [Compound 7, 13-hydroxy-8,11,13-podocarpatriene-1-carboxylic acid] | 1% | 101 to 102 °C | 
CC1(C)CCC2(COC(=O)c3ccccc3C(=O)O)CCC3(C)C(=CCC4C5(C)CCC(=O)C(C)(C)C5CCC43C)C2C1 (stereo not drawn) [Compound C10a] |  |  | IC50 ([1]; values from the text, quantity type not printed there (Table 2 is an image), read-out: PTP1B enzymatic inhibitory activities): 3.1 µM; IC50 ([2]; previous work, read-out: PTP1B inhibition IC50): 3.12 µM; PTP1B inhibition, fold more than the parent compound OA ([2]; versus OA): 7.6 fold; Antihyperglycaemic effect (plasma glucose) [3]: showed the antihyperglycaemic effect; Acute toxicity observations in treated mice ([3]; mouse, in vivo, ip): hydroabdomen, thrombus and tail necrosis; Cytotoxicity [4]: considerable cytotoxicity and High
CN(CCOc1ccc(CC2SC(=O)NC2=O)cc1)c1ccccn1 (stereo not drawn) [rosiglitazone] |  |  | Effect on glucose consumption / insulin-stimulated glucose uptake [5]: significantly decrease the insulin resistance and improve the glucose uptake; Antihyperglycaemic effect (plasma glucose) [3]: significant antihyperglycaemic effect after 1 h

Continued, in another order:

inhibition at 10 µM [1] | melting point | SMILES | other results
3% |  | CC(C)C1=CC2=CCC3C(C)(CO)CCCC3(C)C2CC1 (stereo not drawn) [Compound 9] | 
2% | 67 to 68 °C | Cc1ccc(S(=O)(=O)OCC2(C)CCCC3(C)C4CCC(C(C)C)=CC4=CCC23)cc1 (stereo not drawn) [Compound 10] | 
0% |  | CC(C)C1=CC2=CCC3C(C)(C)CCCC3(C)C2CC1 (stereo not drawn) [Compound 11] | 
22% |  | CC(C)(O)c1ccc2c(c1)CCC1C(C)(C)CCCC21C (stereo not drawn) [Compound 13, 15-Hydroxydehydroabietane] | 
15% | 145 to 146 °C | CC1(C)CCCC2(C)c3ccc(O)cc3CCC12 (stereo not drawn) [Compound 14, 13-Hydroxy-8,11,13-podocarpatriene] | 
 | 72 to 73 °C | C[C@@]1(C(=O)O)CCC[C@]2(C)c3ccc(OCCOC(=O)c4ccccc4C(=O)O)cc3CCC12 (stereo partly drawn) [Compound 15] | 
 | 138 to 139 °C | C[C@@]1(C(=O)O)CCC[C@]2(C)c3ccc(OCCOC(=O)c4ccccc4)cc3CCC12 (stereo partly drawn) [Compound 25] | 
 | 126 to 127 °C | C[C@@]1(C(=O)O)CCC[C@]2(C)c3ccc(OCCOC(=O)c4ccccc4N)cc3CCC12 (stereo partly drawn) [Compound 28] | 
 | 189 to 190 °C | C[C@@]1(C(=O)O)CCC[C@]2(C)c3ccc(OCCOC(=O)c4ccc5cc(C(=O)O)ccc5c4)cc3CCC12 (stereo partly drawn) [Compound 34] | 
